Laboratory results reported in patent US20250171461A1, “STIMULATOR OF INTERFERON GENES (STING) MODULATORS, AND COMPOSITIONS AND METHODS THEREOF” (Geode Therapeutics Inc., priority 2022, published 2025).

Columns and labels:
[1] = biological target: T1, human HAQ STING isoform (hSTING HAQ) (Homo sapiens, UniProt Q86WV6, G230A/H232R/R293Q/R71H); assay: IFN-β mRNA level in THP1 cells (qPCR, STING agonist cellular activity); assay type: cell-based; conditions: compound at 3.6 μM, 2 hrs, IFNβ expression normalized against GAPDH by the 2^-ΔΔCT method, DMSO = 1.0
T1 construct: THP1 cells express the naturally occurring human HAQ STING isoform (hSTING HAQ); host or cells: THP1
Outline: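 THP1 cells were seeded at 9×10^5 per well, incubated overnight, then treated with compound at 3.6 μM final (0.1% DMSO control) for 2 hrs at 37 °C. IFN-β mRNA was measured by SYBR Green qPCR, normalised to GAPDH by the 2^−ΔΔCT method, in triplicate.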

[2] = biological target: T2, hERG channel (Homo sapiens, UniProt Q12809); assay: hERG safety evaluation, manual whole cell patch clamp in hERG-expressing HEK 293 cells; assay type: cell-based; conditions: hERG stably expressed HEK 293 cells, tail current, whole cell recording
T2 construct: host or cells: HEK 293
Experimental: (1) hERG stably expressed HEK 293 cell line (#60187) was purchased from BPS Bioscience and P3-P20 were used for the study. Cells were cultured in medium containing: 90% MEM, 10% FBS, 0.1 mM NEAA, 100 U/mL Penicillin-Streptomycin, 1 mM Na pyruvate and 500 μg/mL Geneticin. Cells are split about three times a week, and maintained between ˜40% to ˜80% confluence. 24 to 48 hours prior to recordings, the cells were plated on 0.05 mg/mL PDL pre-coated glass cover slips placed in 48-well plate at 1×10^4 cells. (2) The number of cells being plated on the cover slip should reach a confluence rate at which majority of the cells are single. (1) Test compounds were initially prepared in DMSO with final concentration of 10 mM as stock solution. (2) Compound was first made into 10, 3, 1, 0.3 and 0.1 mM DMSO stock, then serial diluted into the desired test concentrations in the extracellular solution (ECs). 30 uM test solution was diluted from 10 mM DMSO stock. The final DMSO concentration was in range of 0.1-0.3%. HEKA EPC 10 USB patch clamp amplifier (from HEKA Elektronik, Germany) was used in the whole cell recording. A cover slip with plenty of single HEK293 hERG cells on the surface was removed and placed into a continuously perfused (approximately 1 ml/minute) recording chamber mounted on an inverted microscope. HERG channel currents were recorded from single cells using standard whole cell recording techniques. The cells were voltage clamped at a holding potential of −80 mV. Then hERG current was activated by depolarizing at +30 mV for 5000 ms, after which the current was taken back to −50 mV for 5000 ms to remove the inactivation and observe the deactivating tail current. The K+ tail current through HERG channels observed during this step was allowed to stabilize under continuous bath perfusion. Cells were then superfused with drug until steady state block was achieved. Steady state was considered reached when three consecutive super-imposable current records were collected. At this point, cells were once again superfused with extracellular solution until the current amplitude returned to values close to those measured before application of drug. (1) Percent current inhibition was calculated using the following equation. (Note: PatchMaster was used to extract the peak current from the original data.) (2) The dose response curve of test compounds was plotted with % inhibition against the concentration of test compounds using Graphpad Prism 9.0, and fit the data to a log(inhibitor) vs. response—Variable slope curve.

T2 sequence (Q12809 whole entry): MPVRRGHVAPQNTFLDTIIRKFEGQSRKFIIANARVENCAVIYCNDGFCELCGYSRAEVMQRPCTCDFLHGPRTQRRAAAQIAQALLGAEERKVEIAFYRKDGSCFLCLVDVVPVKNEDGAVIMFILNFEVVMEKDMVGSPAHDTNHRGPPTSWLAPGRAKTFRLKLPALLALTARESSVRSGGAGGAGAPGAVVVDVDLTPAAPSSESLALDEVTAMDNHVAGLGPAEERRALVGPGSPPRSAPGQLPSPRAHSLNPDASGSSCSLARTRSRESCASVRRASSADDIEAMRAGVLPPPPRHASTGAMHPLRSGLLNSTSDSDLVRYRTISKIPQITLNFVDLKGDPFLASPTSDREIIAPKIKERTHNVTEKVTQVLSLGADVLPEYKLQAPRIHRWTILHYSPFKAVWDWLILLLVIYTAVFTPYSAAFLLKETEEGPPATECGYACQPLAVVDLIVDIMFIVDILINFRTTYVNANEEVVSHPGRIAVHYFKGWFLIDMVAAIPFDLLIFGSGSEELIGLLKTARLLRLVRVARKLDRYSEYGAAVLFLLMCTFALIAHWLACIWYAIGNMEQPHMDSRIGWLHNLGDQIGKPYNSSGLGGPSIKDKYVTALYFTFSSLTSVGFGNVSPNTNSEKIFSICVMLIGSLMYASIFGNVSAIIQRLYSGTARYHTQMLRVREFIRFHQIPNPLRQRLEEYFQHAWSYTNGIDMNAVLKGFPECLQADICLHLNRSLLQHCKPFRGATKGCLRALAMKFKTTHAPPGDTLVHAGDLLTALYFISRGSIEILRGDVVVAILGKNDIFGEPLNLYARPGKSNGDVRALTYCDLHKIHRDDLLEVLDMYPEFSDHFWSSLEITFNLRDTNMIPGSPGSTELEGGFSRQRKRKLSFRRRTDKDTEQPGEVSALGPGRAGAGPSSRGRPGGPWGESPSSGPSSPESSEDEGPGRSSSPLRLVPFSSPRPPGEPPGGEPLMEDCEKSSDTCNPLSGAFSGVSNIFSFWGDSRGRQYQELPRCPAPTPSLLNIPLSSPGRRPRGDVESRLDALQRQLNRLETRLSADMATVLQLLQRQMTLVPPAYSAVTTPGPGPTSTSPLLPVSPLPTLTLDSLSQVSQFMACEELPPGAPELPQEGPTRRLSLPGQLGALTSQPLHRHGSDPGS
T1 sequence (Q86WV6 whole entry R71H/G230A/H232R/R293Q, canonical isoform): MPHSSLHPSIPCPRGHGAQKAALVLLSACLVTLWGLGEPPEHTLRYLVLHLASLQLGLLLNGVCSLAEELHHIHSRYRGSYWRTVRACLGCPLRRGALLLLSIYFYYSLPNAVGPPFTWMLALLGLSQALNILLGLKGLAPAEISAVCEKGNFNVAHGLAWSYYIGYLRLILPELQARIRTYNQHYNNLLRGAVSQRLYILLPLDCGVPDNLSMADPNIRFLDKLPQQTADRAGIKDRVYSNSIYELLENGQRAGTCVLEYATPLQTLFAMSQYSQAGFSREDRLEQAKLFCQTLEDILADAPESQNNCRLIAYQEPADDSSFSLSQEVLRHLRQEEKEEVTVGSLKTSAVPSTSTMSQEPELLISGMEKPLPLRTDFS

| Compound | Relative mRNA INFβ/GAPDH THP 1 [1] | IC50 [2] [nM] |
| --- | --- | --- |
| COc1cc(CN(Cc2cn3c4c(c(F)c(F)cc4c2=O)OCC3C)[C@H]2CCCN(c3ccc(N)nc3)C2)ccn1 (stereo partly drawn) [Compound 1, 6-((((S)-1-(6-aminopyridin-3-yl)piperidin-3-yl)((2-methoxypyridin-4-yl)methyl)amino)methyl)-9,10-difluoro-3-methyl-2H-[1,4]oxazino[2,3,4-ij]quinolin-7(3H)-one] | 447.9 | 1580 |
| COc1cc(CN(Cc2cn3c4c(c(N5CCN(C)CC5)c(F)cc4c2=O)OCC3C)[C@H]2CCCN(c3ccc(N)nc3)C2)ccn1 (stereo partly drawn) [Compound 29, 6-((((S)-1-(6-aminopyridin-3-yl)piperidin-3-yl)((2-methoxypyridin-4-yl)methyl)amino)methyl)-9-fluoro-3-methyl-10-(4-methylpiperazin-1-yl)-2H-[1,4]oxazino[2,3,4-ij]quinolin-7(3H)-one] | 3330.1 | 34100 |
| COc1cc(CN(Cc2cn3c4c(c(F)c(F)cc4c2=O)OCC3)[C@H]2CCCN(c3ccc(N)nc3)C2)ccn1 [Compound 66, (S)-6-(((1-(6-aminopyridin-3-yl)piperidin-3-yl)((2-methoxypyridin-4-yl)methyl)amino)methyl)-9,10-difluoro-2,3-dihydro-7H-[1,4]oxazino[2,3,4-ij]quinolin-7-one] | 7328.8 | 2720 |
| COc1cc(CN(Cc2cn3c4c(c(F)c(F)cc4c2=O)CCC3)[C@H]2CCCN(c3ccc(N)nc3)C2)ccn1 [Compound 67, (S)-2-(((1-(6-aminopyridin-3-yl)piperidin-3-yl)((2-methoxypyridin-4-yl)methyl)amino)methyl)-8,9-difluoro-6,7-dihydro-1H,5H-pyrido[3,2,1-ij]quinolin-1-one] | 7398.9 | 3080 |
| COc1cc(CN(Cc2cn3c4c(c(F)c(F)cc4c2=O)SCC3)[C@H]2CCCN(c3ccc(N)nc3)C2)ccn1 [Compound 69, 9,10-difluoro-6-({[(3S)-1-(6-aminopyridin-3-yl)hexahydropyridin-3-yl][(2-methoxypyridin-4-yl)methyl]amino}methyl)-3,7-dihydro-2H-[1,4]thiazino[2,3,4-ij]quinolin-7-one] | 9547.9 | 1940 |
| COCC1COc2c(F)c(F)cc3c(=O)c(CN(Cc4ccnc(OC)c4)[C@H]4CCCN(c5ccc(N)nc5)C4)cn1c23 (stereo partly drawn) [Compound 82, 6-((((S)-1-(6-aminopyridin-3-yl)piperidin-3-yl)((2-methoxypyridin-4-yl)methyl)amino)methyl)-9,10-difluoro-3-(methoxymethyl)-2,3-dihydro-7H-[1,4]oxazino[2,3,4-ij]quinolin-7-one] | 349.0 | 3140 |
| COc1cc(CN(Cc2cn3c4c(c(F)c(F)cc4c2=O)OCC3)[C@H]2CCCN(c3ccc(NCC4CC4)nc3)C2)ccn1 [Compound 99, (S)-6-(((1-(6-((cyclopropylmethyl)amino)pyridin-3-yl)piperidin-3-yl)((2-methoxypyridin-4-yl)methyl)amino)methyl)-9,10-difluoro-2,3-dihydro-7H-[1,4]oxazino[2,3,4-ij]quinolin-7-one] | 368.7 | – |
| Cc1ccc(N2CCC[C@H](N(Cc3ccnc(C)c3)Cc3cn4c5c(c(OCCO)c(F)cc5c3=O)OCC4C)C2)cn1 (stereo partly drawn) [Compound 101, 9-fluoro-10-(2-hydroxyethoxy)-3-methyl-6-((((S)-1-(6-methylpyridin-3-yl)piperidin-3-yl)((2-methylpyridin-4-yl)methyl)amino)methyl)-2,3-dihydro-7H-[1,4]oxazino[2,3,4-ij]quinolin-7-one] | 332.9 | – |
| Cc1ccc(N2CCC[C@H](N(Cc3ccnc(C)c3)Cc3cn4c5c(c(O)c(F)cc5c3=O)OCC4C)C2)cn1 (stereo partly drawn) [Compound 102, 9-fluoro-10-hydroxy-3-methyl-6-((((S)-1-(6-methylpyridin-3-yl)piperidin-3-yl)((2-methylpyridin-4-yl)methyl)amino)methyl)-2,3-dihydro-7H-[1,4]oxazino[2,3,4-ij]quinolin-7-one] | 0.9 | – |

Continued, in another order:

| Relative mRNA INFβ/GAPDH THP 1 [1] | Compound | IC50 [2] [nM] |
| --- | --- | --- |
| 433.0 | COc1cc(CN(Cc2cn3c4c(c(F)c(F)cc4c2=O)OCC3C(C)C)[C@H]2CCCN(c3ccc(N)nc3)C2)ccn1 (stereo partly drawn) [Compound 53, 6-((((S)-1-(6-aminopyridin-3-yl)piperidin-3-yl)((2-methoxypyridin-4-yl)methyl)amino)methyl)-9,10-difluoro-3-isopropyl-2H-[1,4]oxazino[2,3,4-ij]quinolin-7(3H)-one] | 1270 |
| 1.0 | Cc1cc(CN(Cc2cn3c4c(c(F)c(F)cc4c2=O)SCC3)[C@H]2CCCN(c3cnccn3)C2)ccn1 [Compound 97, (S)-9,10-difluoro-6-((((2-methylpyridin-4-yl)methyl)(1-(pyrazin-2-yl)piperidin-3-yl)amino)methyl)-2,3-dihydro-7H-[1,4]thiazino[2,3,4-ij]quinolin-7-one] | – |
| 301.6 | COc1cc(CN(Cc2cn3c4c(c(F)c(F)cc4c2=O)SCC3)[C@H]2CCCN(c3ccc(NCC4CC4)nc3)C2)ccn1 [Compound 98, (S)-6-(((1-(6-((cyclopropylmethyl)amino)pyridin-3-yl)piperidin-3-yl)((2-methoxypyridin-4-yl)methyl)amino)methyl)-9,10-difluoro-2,3-dihydro-7H-[1,4]thiazino[2,3,4-ij]quinolin-7-one] | – |
| 581.3 | CCC1COc2c(F)c(F)cc3c(=O)c(CN(Cc4ccnc(OC)c4)[C@H]4CCCN(c5ccc(N)nc5)C4)cn1c23 (stereo partly drawn) [Compound 100, 6-((((S)-1-(6-aminopyridin-3-yl)piperidin-3-yl)((2-methoxypyridin-4-yl)methyl)amino)methyl)-3-ethyl-9,10-difluoro-2,3-dihydro-7H-[1,4]oxazino[2,3,4-ij]quinolin-7-one] | – |
| 356.0 | COc1cc(CN(Cc2cn3c4c(c(OC)c(F)cc4c2=O)OCC3C)[C@H]2CCCN(c3ccc(N)nc3)C2)ccn1 (stereo partly drawn) [Compound 103, 6-((((S)-1-(6-aminopyridin-3-yl)piperidin-3-yl)((2-methoxypyridin-4-yl)methyl)amino)methyl)-9-fluoro-10-methoxy-3-methyl-2,3-dihydro-7H-[1,4]oxazino[2,3,4-ij]quinolin-7-one] | – |
